The values below come from PMC5127184 (Scientific Reports, 2016).

One data set in a line: echidna serum. The following applies: 37 °C, up to seven hours.
Data set [1] can be described thus: purified human serum in the presence of DPP-4 inhibitor P32/98. The following applies: 37 °C, up to 11 h.
The nature of data set [2]: in vitro. It counts as in vitro ADME, human. The following applies: 7 μM peptide, 37 °C; for Stability in albumin-depleted human serum (in words): 0-11 h, RP-HPLC, n = 3; for remaining at 11 h, 7 μM: human, 11 h incubation, serum purified by DEAE Affi-Gel Blue (albumin-depleted), RP-HPLC area under the curve of intact peptide, means ± S.E.M. of three experiments in triplicate. The procedure:
(§1) Aliquots were analysed by RP-HPLC. Human serum was from the author Briony Forbes and provided with informed consent. We confirm that all methods for these studies were carried out in accordance with relevant guidelines and regulations, and all experimental protocols satisfy the Adelaide University Human Research Ethics Committee criteria as being “negligible risk research”.

The target of data set [3] is T1, hGLP-1R (Homo sapiens, UniProt P43220).
T1 construct: expressed in transfected cells
Put plainly: Intracellular Ca2+ mobilization, FlpInCHO-hGLP-1R cells. It counts as cell-based. The procedure:
(§2) Human and pGLP-1R cDNAs were isogenically integrated into FlpIn-Chinese hamster ovary (FlpInCHO) cells (Invitrogen) and selection of receptor-expressing cells accomplished by treatment with 600 μg/ml hygromycin B as described previously. Transfected and parental FlpInCHO cells were maintained in DMEM supplemented with 10% heat-inactivated FBS and incubated in a humidified environment at 37 °C in 5% CO2.
(§3) FlpInCHO-hGLP-1R and FlpInCHO-pGLP-1R cells were seeded at a density of 3 × 10^4 cells/well into 96-well culture plates and incubated overnight at 37 °C in 5% CO2 and receptor-mediated intracellular Ca^2+ mobilization determined as described previously.
(§4) All data were analysed in Prism 6.0c (GraphPad Software Inc., San Diego, CA). Concentration response signalling data were analysed using a three-parameter logistic equation as described previously. Signalling bias was analysed as described. Briefly, quantification of signal bias was performed using pharmacologically derived parameters of agonist affinity (Ka) and efficacy (tau) for each ligand in each of the three signalling pathways (cAMP accumulation, ERK1/2 phosphorylation, Intracellular Ca^2+ mobilisation). […] Data are presented on a log scale.
Background: A change in cytosolic calcium serves as a functional read-out for many receptors and channels.

A short description of data set [4]: in vitro. It counts as in vitro ADME, echidna. The settings on record: 7 μM peptide, 37 °C; for Uncleaved peptide remaining after 11 hours in echidna serum: RP-HPLC, sentence covers platypus and echidna sera; for remaining at 11 h, 7 μM: echidna, 11 h incubation, serum purified by DEAE Affi-Gel Blue, RP-HPLC area under the curve of intact peptide, means ± S.E.M. of three experiments in triplicate. The procedure:
as §1

A further data set deals with purified human DPP-4 (Homo sapiens, UniProt P27487). Put plainly: Cleavage by purified human DPP-4 (RP-HPLC). It counts as in vitro ADME. The settings on record: 30 μM peptide, DPP-4 3 U/L, 0.1 M sodium phosphate pH 7.4, 37 °C, 0-120 min, n = 3. The procedure: (§5) Samples were analysed by RP-HPLC with solvent A (0.1% TFA in water) and B (80% acetonitrile in 0.1% aqueous TFA) at a flow rate of 0.5 ml/min.

In data set [5] the target is T1, hGLP-1R. Put plainly: Radioligand competition binding, FlpInCHO-hGLP-1R cells. The procedure: as §2, with “CO2. INS-1(832/13) cells were cultured in RPMI-1640 medium supplemented with 10 mM HEPES, 10% heat-inactivated FBS, 2 mM L-glutamine, 1 mM sodium pyruvate, 0.05 mM β-mercaptoethanol, 100 iU/ml penicillin, and 100 µg/ml streptomycin at 37 °C in a humidified 5% CO2 atmosphere.” for “CO2.”
FlpInCHO-hGLP-1R and FlpInCHO-pGLP-1R cells were seeded at a density of 3 × 10^4 cells/well and INS-1(832/13) cells at 10^5 cells/well into 96-well culture plates and incubated overnight at 37 °C in 5% CO2. […] Cells were then lysed in 0.1 M NaOH, and radioactivity determined by γ-counting as described previously.
All data were analysed in Prism 6.0c (GraphPad Software Inc., San Diego, CA). Concentration response signalling data were analysed using a three-parameter logistic equation as described previously. Signalling bias was analysed as described. […] The transduction ratio (tau/Ka) was extracted from standard concentration-response data that was analysed with the operational model of agonism (Kenakin & Christopoulos 2012). […]

The nature of data set [6]: in vitro. It counts as in vitro ADME, platypus. The following applies: 37 °C; for Effect of DPP-4 inhibitor P32/98 on degradation in platypus serum (in words): 100 μM P32/98, 7 μM peptide, RP-HPLC; for remaining at 11 h, 7 μM: platypus, 11 h incubation, 7 μM peptide, serum purified by DEAE Affi-Gel Blue, RP-HPLC area under the curve of intact peptide, means ± S.E.M. of three experiments in triplicate. The procedure: as §1

Data set [7] concerns the target T1, hGLP-1R. Briefly: ERK1/2 phosphorylation, FlpInCHO-hGLP-1R cells. It counts as cell-based. The procedure: as §2
FlpInCHO-hGLP-1R and FlpInCHO-pGLP-1R cells were seeded at a density of 3 × 10^4 cells/well into 96-well culture plates and incubated overnight at 37 °C in 5% CO2. Receptor-mediated ERK1/2 phosphorylation was determined as previously described.
as §4

In data set [8] the target is T1, hGLP-1R. Briefly: cAMP accumulation, FlpInCHO-hGLP-1R cells. It counts as cell-based. The procedure:
as §2, with “CO2. INS-1(832/13) cells were cultured in RPMI-1640 medium supplemented with 10 mM HEPES, 10% heat-inactivated FBS, 2 mM L-glutamine, 1 mM sodium pyruvate, 0.05 mM β-mercaptoethanol, 100 iU/ml penicillin, and 100 µg/ml streptomycin at 37 °C in a humidified 5% CO2 atmosphere. […]” for “CO2.”
All data were analysed in Prism 6.0c (GraphPad Software Inc., San Diego, CA). Concentration response signalling data were analysed using a three-parameter logistic equation as described previously. Signalling bias was analysed as described. Briefly, quantification of signal bias was performed using pharmacologically derived parameters of agonist affinity (Ka) and efficacy (tau) for each ligand in each of the three signalling pathways (cAMP accumulation, ERK1/2 phosphorylation, Intracellular Ca^2+ mobilisation). The transduction ratio (tau/Ka) was extracted from standard concentration-response data that was analysed with the operational model of agonism (Kenakin & Christopoulos 2012). […]
In general terms: Changes in cAMP serve as a functional read-out for many G protein-coupled receptors.

The subject of data set [9] is DPP-4. Put plainly: DPP-4 (3 U/L) in sodium phosphate buffer (0.1 M, pH 7.4). The following applies: human, 37 °C, up to 120 min.
Data set [10] in a line: albumin-depleted human serum (purified by DEAE Affi-Gel Blue Cartridges). The settings on record: 37 °C, up to 11 h.
Data set [11] can be described thus: 12.5% human serum in 100 mM sodium phosphate buffer (PH 7.4), 150 mM NaCl, 0.2% Tween-20. The following applies: 37 °C, up to 4 h.
A short description of data set [12]: 12.5% echidna serum in 100 mM sodium phosphate buffer (PH 7.4), 150 mM NaCl, 0.2% Tween-20. The following applies: 37 °C, up to 4 h.
The nature of data set [13]: 12.5% platypus serum in 100 mM sodium phosphate buffer (PH 7.4), 150 mM NaCl, 0.2% Tween-20. The following applies: 37 °C, up to 4 h.
Data set [14] concerns pGLP-1R. Put plainly: Radioligand competition binding, FlpInCHO-pGLP-1R cells. Set-up: species or system platypus. The following applies: competition with 125I-hGLP-1 (7–36), 0.15 nM, FlpInCHO cells stably expressing pGLP-1R, overnight 4 °C; means ± S.E.M. of two or three experiments in triplicate. The procedure:
as §2
Cells were then incubated overnight at 4 °C, followed by three washes with ice-cold 1 × PBS to remove unbound radioligand. Cells were then lysed in 0.1 M NaOH, and radioactivity determined by γ-counting as described previously.
as §4
For orientation: Loss of bound radioactivity is the signal in a displacement assay; it reports binding, not function.

Data set [15] has as its system DPP-4. Put plainly: Cleavage by purified human DPP-4 (RP-HPLC). The following applies: human, isolated enzyme dpp iv, 30 μM peptide, DPP-4 3 U/L, 0.1 M sodium phosphate pH 7.4, 37 °C, UV 215.8 nm, n = 3, read-out: Time to 50% reduction of intact peptide with purified human DPP-4. It counts as in vitro ADME. The procedure:
as §5

Data set [16] concerns pGLP-1R. Briefly: Intracellular Ca2+ mobilization, FlpInCHO-pGLP-1R cells. It counts as cell-based, platypus. The settings on record: normalized to 100 μM ATP, means ± S.E.M. of at least three experiments in triplicate. The procedure:
as §2, §3, §4

Another data set relates to INS-1 (832/13) cells. Put plainly: cAMP accumulation, INS-1 (832/13) cells. It counts as cell-based. The following applies: normalized to forskolin response, means ± S.E.M. of at least three experiments in triplicate.

“Also recorded” adds a separate entry of the source. Ends that are not written are not given here.

A word on the share remaining: it is what is left of the initial amount, in per cent. A lower share remaining goes with more turnover. For orientation: EC50 means the midpoint of the concentration-response curve. Low readings indicate higher potency in that assay, high ones lower potency in that assay. The term IC50 denotes the concentration at which inhibition is half-maximal. Read a low IC50 as greater potency.

T1 sequence (P43220 24-463): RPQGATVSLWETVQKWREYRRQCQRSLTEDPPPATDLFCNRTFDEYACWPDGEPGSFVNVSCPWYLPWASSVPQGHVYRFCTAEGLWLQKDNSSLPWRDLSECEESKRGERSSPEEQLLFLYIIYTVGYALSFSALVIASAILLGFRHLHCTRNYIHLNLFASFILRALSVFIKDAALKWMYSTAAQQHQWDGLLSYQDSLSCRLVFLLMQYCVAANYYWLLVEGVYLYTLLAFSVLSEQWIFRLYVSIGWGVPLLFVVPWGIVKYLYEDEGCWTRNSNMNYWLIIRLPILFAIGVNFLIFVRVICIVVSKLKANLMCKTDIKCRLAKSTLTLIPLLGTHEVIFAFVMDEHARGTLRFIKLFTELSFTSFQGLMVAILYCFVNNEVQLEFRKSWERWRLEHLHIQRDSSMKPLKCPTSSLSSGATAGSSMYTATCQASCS
purified human DPP-4, sequence (P27487 whole entry): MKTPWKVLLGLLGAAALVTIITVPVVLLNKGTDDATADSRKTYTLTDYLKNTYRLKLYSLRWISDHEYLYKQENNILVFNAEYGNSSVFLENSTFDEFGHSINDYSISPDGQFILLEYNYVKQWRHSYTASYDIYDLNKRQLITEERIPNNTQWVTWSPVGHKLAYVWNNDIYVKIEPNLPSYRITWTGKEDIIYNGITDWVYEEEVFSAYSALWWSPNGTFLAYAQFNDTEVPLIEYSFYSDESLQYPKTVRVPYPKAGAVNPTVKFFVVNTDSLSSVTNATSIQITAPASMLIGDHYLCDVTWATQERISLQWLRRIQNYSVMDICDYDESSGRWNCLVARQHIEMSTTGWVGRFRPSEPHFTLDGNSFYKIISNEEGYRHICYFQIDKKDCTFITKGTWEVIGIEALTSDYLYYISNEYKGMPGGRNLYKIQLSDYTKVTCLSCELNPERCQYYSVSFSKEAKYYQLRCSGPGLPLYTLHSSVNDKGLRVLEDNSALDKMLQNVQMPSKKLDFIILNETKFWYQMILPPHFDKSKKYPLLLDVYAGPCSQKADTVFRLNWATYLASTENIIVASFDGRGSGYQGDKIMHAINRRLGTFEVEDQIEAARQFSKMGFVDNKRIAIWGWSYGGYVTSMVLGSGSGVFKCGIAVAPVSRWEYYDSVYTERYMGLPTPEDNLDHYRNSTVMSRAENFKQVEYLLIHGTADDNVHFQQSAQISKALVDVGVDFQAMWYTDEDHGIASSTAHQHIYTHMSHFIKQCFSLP

Regarding HAEGTFTSDVSSYLEGQAAKEFIAWLVKGRG, the fragment found entry in “echidna serum” is reported as “hGLP-1 (1-22) HAEGTFTSDVSSYLEGQAAKEF”. In [1], the not cleaved result was “remained intact (0% degraded)”.

Consider “HFDGVYTDYFSRYLEEKATNEFIDWLLKGQE [eGLP-1]”, for which, in “in vitro [2]”, the “Stability in albumin-depleted human serum (in words)” value is “remained stable”. Besides, the results for the share remaining at 11 h, 7 μM in “in vitro [2]”, in “in vitro [4]” and in “in vitro [6]” were 99.3 ± 1.8%, 42.4 ± 4.3% and 48.3 ± 3.5%, respectively. Moreover, the EC50 at hGLP-1R [3] is 10000 nM; on hGLP-1R [7], 794 nM; on hGLP-1R [8] it was 126 nM. Further, the “Uncleaved peptide remaining after 11 hours in echidna serum” value in the data set “in vitro [4]” is recorded as “less than 50%”. For the same compound, at purified human DPP-4, the “Degradation by purified human DPP-4 (in words)” value is “not degraded”. The IC50 on hGLP-1R [5] is 25.1 nM. Further, in the data set “in vitro [6]”, the “Effect of DPP-4 inhibitor P32/98 on degradation in platypus serum (in words)” value is reported as “did not alter the cleavage pattern”.

“HSEGTFTNDVTRLLEEKATSEFIAWLLKGLE [pGLP-1]”: the “Stability in albumin-depleted human serum (in words)” value in the data set “in vitro [2]” is given as “remained stable”. Also, the fraction remaining at 11 h, 7 μM amounted to 96.4 ± 2% in the data set “in vitro [2]”, 49.4 ± 2.9% in the data set “in vitro [4]” and 55.1 ± 3.5% in the data set “in vitro [6]”. Moreover, the EC50 on hGLP-1R [3] is 316 nM; at hGLP-1R [7] it was 12.6 nM; on hGLP-1R [8], 2 nM. The “Uncleaved peptide remaining after 11 hours in echidna serum” value in the data set “in vitro [4]” was “less than 50%”. For the same compound, the “Degradation by purified human DPP-4 (in words)” value on purified human DPP-4 is on record as “not degraded”. At hGLP-1R [5], this compound had an IC50 of 12.6 nM. In the data set “in vitro [6]”, the “Effect of DPP-4 inhibitor P32/98 on degradation in platypus serum (in words)” value is recorded as “did not alter the cleavage pattern”.

Turning to HSEGTFTNDVTRLLEEKATSEFIAWLLKGLE, the cleaved bond result in “echidna serum” is listed as “R12-L13; also recorded: L14-E15; also recorded: E16-K17; also recorded: T19-S20; also recorded: L26-L27; also recorded: K28-G29”. Further, the not cleaved result in the data set with DPP-4 [9] was “not degraded by human DPP-4”; in data set [10] it was 96.4 ± 2.0% after 11 h.

Take H-Ala-Pro-p-nitroanilide: the cleaved bond entry in [11], in [12] and in [13] was “Pro-p-nitroanilide” in each case.

Turning to `CC[C@H](C)[C@H](NC(=O)[C@H](Cc1ccccc1)NC(=O)[C@H](CCC(=O)O)NC(=O)[C@H](CCCCN)NC(=O)[C@H](C)NC(=O)[C@H](C)NC(=O)[C@H](CCC(N)=O)NC(=O)CNC(=O)[C@H](CCC(=O)O)NC(=O)[C@H](CC(C)C)NC(=O)[C@H](Cc1ccc(O)cc1)NC(=O)[C@H](CO)NC(=O)[C@H](CO)NC(=O)[C@@H](NC(=O)[C@H](CC(=O)O)NC(=O)[C@H](CO)NC(=O)[C@@H](NC(=O)[C@H](Cc1ccccc1)NC(=O)[C@@H](NC(=O)CNC(=O)[C@H](CCC(=O)O)NC(=O)[C@H](C)NC(=O)[C@@H](N)Cc1c[nH]cn1)[C@@H](C)O)[C@@H](C)O)C(C)C)C(=O)N[C@@H](C)C(=O)N[C@@H](Cc1c[nH]c2ccccc12)C(=O)N[C@@H](CC(C)C)C(=O)N[C@H](C(=O)N[C@@H](CCCCN)C(=O)NCC(=O)N[C@@H](CCCNC(=N)N)C(=O)NCC(=O)O)C(C)C` [hGLP-1], the “pIC50 pGLP-1R CHO” value with pGLP-1R [14] is 8.9 ± 0.1. In the data set on DPP-4 [15], the half-life at 30 μM was at most 1 h. For the same compound, the “pEC50 pGLP-1R CHO Ca2+ mobilization” value in the data set with pGLP-1R [16] is reported as 8.3 ± 0.1^&. Further, the “pEC50 INS-1 (832/13) cAMP accumulation” value in the data set on INS-1 (832/13) cells was determined as 9.6 ± 0.3.

As for HFDGVYTDYFSRYLEEKATNEFIDWLLKGQE, the cleaved bond result in the data set “echidna serum” is recorded as “T19-N20; also recorded: R12-Y13; also recorded: Y13-L14”. Further, the not cleaved entry was “not degraded by human DPP-4” in the data set with DPP-4 [9] and 99.3 ± 1.8% after 11 h in data set [10].
